In general, MIC refers to the lowest concentration that inhibits growth of the organism.

In brackets after ≈: the same amount, converted by molar mass.

In patent publication US9409905B2, “Antibacterial compounds and methods for use” (PTC THERAPEUTICS, INC., priority 2011, dated 2016) one finds MIC data, which are given here for 6 molecules.

The subject of one assay is A. baumannii MXX2240. As to the kind of experiment: Antibacterial activity, MIC, resistant strain (Table 4). The format is cell-based. The settings on record: Acinetobacter baumannii, MXX2240; resistant A. baumannii MMX2240, multi-drug resistant clinical isolate; read-out: MIC, MMX2240. Put shortly:
(§1)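 Broth microdilution; MIC (μg/mL) = lowest concentration with no macroscopically visible growth. Resistant strains: multi-drug resistant clinical isolates.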

For a further assay, the system named is K. pneumoniae MXX1232. The description is as above. To be noted: Klebsiella pneumoniae, MXX1232; resistant K. pneumoniae MMX1232, multi-drug resistant clinical isolate; read-out: MIC, MMX1232. It counts as cell-based. A digest of the protocol: as §1
Assay [1] concerns Pseudomonas aeruginosa (P. aeruginosa) 27853. As to the kind of experiment: Antibacterial activity, MIC (Table 5). It counts as cell-based. To be noted: P. aeruginosa 27853, read-out: MIC, 27853. A digest of the protocol:
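Compounds are serially diluted in broth and inoculated with the organism. Growth is then inspected macroscopically, and the lowest concentration showing none is taken as the MIC (μg/mL).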

The test system of a further assay is E. coli 25922. As to the kind of experiment: Antibacterial activity, microbroth dilution MIC (Table 1). The format is cell-based, Escherichia coli. The settings on record: Escherichia coli; microbroth dilution; control Gram-negative E. coli 25922 strain; read-out: MIC, 25922. A digest of the protocol:
(§2)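 Potency is reported as minimum inhibitory concentration in μg/mL, determined by broth microdilution as the lowest level of compound that stops growth visible to the eye.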
For orientation: In broth dilution the organism is exposed to a series of concentrations in liquid medium.

Assay [2] deals with Staphylococcus aureus (S. aureus) 29213. The assay is described as above. The format is cell-based. To be noted: microbroth dilution, Gram-positive S. aureus 29213, read-out: MIC, 29213. A digest of the protocol: as §2
The subject of assay [3] is Escherichia coli (E. coli) BAS849. Described as above. The format is cell-based. The settings on record: microbroth dilution, super sensitive Gram-negative E. coli BAS849, read-out: MIC, BAS849. Put shortly: as §2
The next assay has as its system E. coli LZ3111. As to the kind of experiment: Antibacterial activity, MIC, quinolone resistant strain (Table 2). The format is cell-based. The settings on record: Escherichia coli, LZ3111, read-out: MIC LZ3111. A digest of the protocol: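 Strain carries mutations conferring high-level quinolone resistance; tested by microbroth dilution, MIC recorded in μg/mL as lowest concentration preventing visible growth.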

For assay [4], the system named is Acinetobacter baumannii (A. baumannii) BAA747. Put plainly: Antibacterial activity, MIC (Table 4). The format is cell-based. To be noted: A. baumannii BAA747, read-out: MIC, BAA747. Put shortly:
as §1

The test system of assay [5] is Klebsiella pneumoniae (K. pneumoniae) 35657. As to the kind of experiment: Antibacterial activity, MIC (Table 4). To be noted: K. pneumoniae 35657, read-out: MIC, 35657. The format is cell-based. A digest of the protocol: as §1

Turning to `Cc1c(-c2ccc3c(c2)cc(CNC(C)C)n3C)[nH]c(=O)c(C(=O)O)c1O` [Cpd 348, 4-hydroxy-6-(2-((isopropylamino)methyl)-1-methyl-1H-indol-5-yl)-5-methyl-2-oxo-1,2-dihydropyridine-3-carboxylic acid], the MIC with A. baumannii MXX2240 is 1 to 3.5 µg/mL (≈ 2.71 to 9.47 µM); with K. pneumoniae MXX1232 it was 12.5 to 150 µg/mL (≈ 33.8 to 406 µM); in [1] it was 12.5 to 150 µg/mL (≈ 33.8 to 406 µM); in the assay on E. coli 25922, 3.5 to 12.5 µg/mL (≈ 9.47 to 33.8 µM); in assay [2], 12.5 to 150 µg/mL (≈ 33.8 to 406 µM); in assay [3], below 1 µg/mL. Moreover, the MIC (in the assay on E. coli LZ3111; in assay [4]; in [5]) was 1 to 3.5 µg/mL (≈ 2.71 to 9.47 µM) throughout.

`Cc1c(-c2ccc3c(c2)cc(CNC(C)CO)n3C)[nH]c(=O)c(C(=O)O)c1O` (stereo not drawn) [Cpd 349, 4-hydroxy-6-(2-((1-hydroxypropan-2-ylamino)methyl)-1-methyl-1H-indol-5-yl)-5-methyl-2-oxo-1,2-dihydropyridine-3-carboxylic acid]: the MIC in the assay with A. baumannii MXX2240 fell in the range of 12.5 to 150 µg/mL (≈ 32.4 to 389 µM); with K. pneumoniae MXX1232, 12.5 to 150 µg/mL (≈ 32.4 to 389 µM); in assay [1] it was 12.5 to 150 µg/mL (≈ 32.4 to 389 µM); in the assay on E. coli 25922, 12.5 to 150 µg/mL (≈ 32.4 to 389 µM); in assay [2], 12.5 to 150 µg/mL (≈ 32.4 to 389 µM); in [3], 1 to 3.5 µg/mL (≈ 2.59 to 9.08 µM). Also, the MIC in the assay on E. coli LZ3111 is 3.5 to 12.5 µg/mL (≈ 9.08 to 32.4 µM); in assay [4], 12.5 to 150 µg/mL (≈ 32.4 to 389 µM); in [5], 3.5 to 12.5 µg/mL (≈ 9.08 to 32.4 µM).

For `Cc1c(-c2ccc3c(c2)cc(CNCCO)n3C)[nH]c(=O)c(C(=O)O)c1O` [Cpd 350, 4-hydroxy-6-(2-((2-hydroxyethylamino)methyl)-1-methyl-1H-indol-5-yl)-5-methyl-2-oxo-1,2-dihydropyridine-3-carboxylic acid], the MIC in the assay with A. baumannii MXX2240 lay in the range of 12.5 to 150 µg/mL (≈ 33.7 to 404 µM); in the assay with K. pneumoniae MXX1232 it was 12.5 to 150 µg/mL (≈ 33.7 to 404 µM); in assay [1], 12.5 to 150 µg/mL (≈ 33.7 to 404 µM); with E. coli 25922, 12.5 to 150 µg/mL (≈ 33.7 to 404 µM); in [2], 12.5 to 150 µg/mL (≈ 33.7 to 404 µM); in assay [3], 3.5 to 12.5 µg/mL (≈ 9.42 to 33.7 µM). In addition, the results for the minimum inhibitory concentration (MIC) (in the assay with E. coli LZ3111; in assay [4]; in assay [5]) were 3.5 to 12.5 µg/mL (≈ 9.42 to 33.7 µM), 12.5 to 150 µg/mL (≈ 33.7 to 404 µM) and 12.5 to 150 µg/mL (≈ 33.7 to 404 µM), respectively.

As for `Cc1c(-c2ccc3c(c2)cc(CNC(C)(C)C)n3C)[nH]c(=O)c(C(=O)O)c1O` [Cpd 351, 6-(2-((tert-butylamino)methyl)-1-methyl-1H-indol-5-yl)-4-hydroxy-5-methyl-2-oxo-1,2-dihydropyridine-3-carboxylic acid], the minimal inhibitory concentration (MIC) is 1 to 3.5 µg/mL (≈ 2.61 to 9.13 µM) in the assay on A. baumannii MXX2240; 12.5 to 150 µg/mL (≈ 32.6 to 391 µM) with K. pneumoniae MXX1232; 12.5 to 150 µg/mL (≈ 32.6 to 391 µM) in assay [1]; 1 to 3.5 µg/mL (≈ 2.61 to 9.13 µM) with E. coli 25922; 12.5 to 150 µg/mL (≈ 32.6 to 391 µM) in assay [2]; below 1 µg/mL in assay [3]. The MIC in the assay with E. coli LZ3111 is 3.5 to 12.5 µg/mL (≈ 9.13 to 32.6 µM); in [4], below 1 µg/mL; in assay [5] it was 1 to 3.5 µg/mL (≈ 2.61 to 9.13 µM).

For the molecule `CCCNCc1cc2cc(-c3[nH]c(=O)c(C(=O)O)c(O)c3C)ccc2n1C` [Cpd 352, 4-hydroxy-5-methyl-6-(1-methyl-2-((propylamino)methyl)-1H-indol-5-yl)-2-oxo-1,2-dihydropyridine-3-carboxylic acid], the minimum inhibitory concentration (MIC) is 1 to 3.5 µg/mL (≈ 2.71 to 9.47 µM) with A. baumannii MXX2240; 12.5 to 150 µg/mL (≈ 33.8 to 406 µM) in the assay with K. pneumoniae MXX1232; 12.5 to 150 µg/mL (≈ 33.8 to 406 µM) in assay [1]; 3.5 to 12.5 µg/mL (≈ 9.47 to 33.8 µM) with E. coli 25922; 12.5 to 150 µg/mL (≈ 33.8 to 406 µM) in [2]; below 1 µg/mL in assay [3]. Also, the MIC in the assay on E. coli LZ3111 was below 1 µg/mL; in [4], 3.5 to 12.5 µg/mL (≈ 9.47 to 33.8 µM); in [5], 1 to 3.5 µg/mL (≈ 2.71 to 9.47 µM).

For `Cc1c(-c2ccc3c(c2)cc(CNCC(C)C)n3C)[nH]c(=O)c(C(=O)O)c1O` [Cpd 353, 4-hydroxy-6-(2-((isobutylamino)methyl)-1-methyl-1H-indol-5-yl)-5-methyl-2-oxo-1,2-dihydropyridine-3-carboxylic acid], the minimal inhibitory concentration (MIC) in the assay on A. baumannii MXX2240 was below 1 µg/mL; in the assay on K. pneumoniae MXX1232, 12.5 to 150 µg/mL (≈ 32.6 to 391 µM); in assay [1] it was 12.5 to 150 µg/mL (≈ 32.6 to 391 µM); with E. coli 25922, 3.5 to 12.5 µg/mL (≈ 9.13 to 32.6 µM); in assay [2], 12.5 to 150 µg/mL (≈ 32.6 to 391 µM); in assay [3] it was below 1 µg/mL. For the same molecule, the minimal inhibitory concentration (MIC) is 1 to 3.5 µg/mL (≈ 2.61 to 9.13 µM) in the assay with E. coli LZ3111, 3.5 to 12.5 µg/mL (≈ 9.13 to 32.6 µM) in assay [4] and 3.5 to 12.5 µg/mL (≈ 9.13 to 32.6 µM) in assay [5].
